The structures appear in SMILES notation. Values joined by “and” are separate entries in the source; they are usually repeats but may differ in a detail not shown here. Equal values may be shown once. “Also recorded” adds a separate entry of the source. Read-outs that look alike come from different tables or passages of the source.

The values that follow come from US12728114B2, “Methods of treating inflammation” (VERU INC., priority 2021, dated 2026).

One test deals with IL-1α. Conditions: 17ya 40 nM, Dex 10 nM; for IL-1α, replicate 1 / IL-1α, replicate 2 / IL-1α, replicate 3: mouse spleen cells, LPS 5 μg/ml.
The subject of test [1] is IL-1β.
The next test has as its system CXCL-1/KC. It counts as cell-based, mouse.
Another test relates to IL-6. Format: cell-based, mouse.
The subject of test [2] is TNF-α. Format: cell-based, mouse.
In test [3] the test system is IL-1β. Description: ELISA assay to determine IL-1β in PMA-differentiated THP-1 cells stimulated by nigericin. Format: cell-based, human. The conditions noted are these: 17ya 40 nM-5 μM, colchicine 1-10 μM, 1 hr, nigericin 20 μM 1 hr. (ELISA stands for enzyme-linked immunosorbent assay.)
Description: Concentrations of IL-1β in culture supernatant. […] IL-1β level was assessed by enzyme-linked immunosorbent assay (ELISA) kit for human IL-1β (R&D systems) (****P<0.0001, Ordinary one-way ANOVA, Prism 9).
Test [4] concerns TNF-α. As to the kind of experiment: Splenocyte model, flow cytometry of TNF-α expressing cells after LPS. Format: cell-based, mouse. Conditions: 200 nM, 2 hrs preincubation, LPS 5 μg/mL 20 hrs; LPS alone 6.48%, unstimulated 1.03%. (Flow cytometry measures light scatter and fluorescence of single cells or particles in a stream.)
Description: Briefly, cells were washed two times with FACS (PBS containing 1% serum FBS) staining buffer and fully re-suspended in Cyto-Fast Fix/Perm Buffer for 20 min. Then the cells were washed again for two times with Cyto-Fast Perm wash solution and subsequently stained with recommended dilutions of intracellular antibodies for 30 min at room temperature in the dark. After staining, the cells were washed twice in FACS staining buffer, before they were resuspended in FACS staining buffer and analyzed using a NovoCyte flow cytometer (Agilent, Santa Clara, CA). […] FIG. 2E illustrates the flow cytometry of splenocytes incubated with LPS and Colchicine (200 nM).
Setting [5] is: adjusted data (control average subtracted).
The mark [6] stands for this setting: adjusted data (control average subtracted), mouse spleen cells, LPS 5 μg/ml, 17ya 40 nM, Dex 10 nM.
Setting [7] is: raw data, mouse spleen cells, LPS 5 μg/ml, 17ya 40 nM, Dex 10 nM.

For `C[C@@H]1C[C@H]2[C@@H]3CCC4=CC(=O)C=C[C@]4(C)[C@@]3(F)[C@@H](O)C[C@]2(C)[C@@]1(O)C(=O)CO` [Dex, dexamethasone], the “average cytokine suppression, IL-1α” value with IL-1α (LPS-stimulated mouse spleen cells) is on record as 106%. Besides, in the test with IL-1α (setting [5]), the “IL-1α, replicate 1” value is listed as −10.371; the “IL-1α, replicate 2” value is reported as −2.519; the “IL-1α, replicate 3” value was determined as 3.688. Further, in the test on IL-1α (raw data), the “IL-1α, replicate 1” value worked out at 22.962; the “IL-1α, replicate 2” value was 30.814; the “IL-1α, replicate 3” value is given as 37.012. The “IL-1β, replicate 2” value with IL-1β [1] was determined as 4.382. Further, in the test on IL-1β [1] (LPS-stimulated mouse spleen cells, 17ya 40 nM, Dex 10 nM), the “average cytokine suppression, IL-1β” value came to 110%. In the test with IL-1β [1] (setting [6]), the “IL-1β, replicate 1” value is −1.904 and the “IL-1β, replicate 2” value was −2.334. Besides, in the test on IL-1β [1] (setting [7]), the “IL-1β, replicate 1” value was determined as 4.812 and the “IL-1β, replicate 3” value is given as 3.956. In addition, in the test with CXCL-1/KC, the “CXCL-1/KC, Average” value was 136.043 and 253.688; the “CXCL-1/KC, replicate 1” value is 133.410 and 251.054; the “CXCL-1/KC, replicate 2” value was 132.285 and 249.929; the “CXCL-1/KC, replicate 3” value was 142.436 and 260.08. Besides, the “average cytokine suppression, KC” value in the test on CXCL-1/KC came to 59%. Besides, in the test on IL-6, the “IL-6, replicate 1” value was 99.55 and 17.594; the “IL-6, replicate 2” value is 73.64 and −8.316; the “IL-6, replicate 3” value was 72.76 and −9.196; the “average cytokine suppression, IL-6” value is listed as 100%. Further, in the test on TNF-α [2], the “TNF-α, Average” value is 32.414 and 33.60; the “TNF-α, replicate 1” value is 34.2933 and 35.478; the “TNF-α, replicate 2” value is 31.309 and 32.494; the “TNF-α, replicate 3” value was 31.640 and 32.825. The “average cytokine suppression, TNF-α” value in the test with TNF-α [2] is given as 79%.

Take `COc1cc2c(c(OC)c1OC)-c1ccc(OC)c(=O)cc1[C@@H](NC(C)=O)CC2` [colchicine]: the “IL-1β secretion in response to nigericin stimulation” value in the test on IL-1β [3] is given as “dose-dependently (partially) suppressed the IL-1β levels; also recorded: significantly suppressed IL-1β secretion”. Also, the “spleen cells expressing TNF-α” value in the test on TNF-α [4] is on record as 3.30%.
